IC50 data for 19 molecules are collected here from patent US10112940B2, “Histone demethylase inhibitors” (Celgene Quanticel Research, Inc., priority 2014, dated 2018).

Some results are limits rather than exact numbers.

One test addresses JMJD2C (Homo sapiens (Human), UniProt Q9H3R0). Kind of test: JMJD2C in vitro enzyme inhibition assay (TR-FRET). It counts as biochemical. The note with it: 0.3 nM JMJD2C, 300 nM H3K9me3-biotin peptide, 2 μM alpha-ketoglutaric acid, 30 minutes. In outline: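 Baculovirus-expressed JMJD2C (aa 2-372), 0.3 nM, with 300 nM biotin-H3K9me3 peptide and 2 μM alpha-ketoglutarate in HEPES pH 7.3 with ascorbate and Fe(II), 30 min at room temperature, 11-point inhibitor series. H3K9me2 product detected by TR-FRET (Eu-antibody/streptavidin-APC, 665/615 ratio); IC50 fitted.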
(In general: In TR-FRET formats the signal depends on donor and acceptor labels being close together.)

For test [1], the system named is KYSE-150 esophageal carcinoma cell line. As to the kind of experiment: In vitro cell-based assay: BrdU incorporation cell proliferation ELISA. The arrangement: species or system human. The note with it: Homo sapiens, KYSE-150 cells, 168 hours compound incubation, read-out: Cellular IC50. In outline: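 KYSE-150 cells (SMAD4 mut, TP53 mut) seeded at 2,000 cells/well, treated next day with 11-point dilutions (100 μM to 2 nM final) for 168 h. Proliferation read by 2 h BrdU labelling and colorimetric anti-BrdU ELISA at 450 nm; IC50 from curve fit.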
On the technique in general: Incorporation of labelled thymidine or its analogues reports DNA synthesis.

Chain of JMJD2C (Q9H3R0 2-372): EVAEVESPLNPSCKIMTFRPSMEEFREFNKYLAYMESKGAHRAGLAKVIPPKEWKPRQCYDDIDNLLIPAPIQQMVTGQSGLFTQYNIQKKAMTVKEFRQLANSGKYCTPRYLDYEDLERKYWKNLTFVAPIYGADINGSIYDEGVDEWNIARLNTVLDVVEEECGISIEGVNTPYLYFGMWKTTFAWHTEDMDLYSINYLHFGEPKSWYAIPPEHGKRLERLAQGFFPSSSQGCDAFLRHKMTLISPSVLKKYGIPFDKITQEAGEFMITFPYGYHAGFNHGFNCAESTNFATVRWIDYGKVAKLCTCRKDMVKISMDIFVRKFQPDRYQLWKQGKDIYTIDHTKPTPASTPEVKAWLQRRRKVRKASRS

For the molecule `CN(c1ccc(Oc2nc(O)c3ccncc3n2)cc1)c1cccc(C#N)c1` [Example 40, 3-{[4-(4-hydroxy-pyrido[3,4-d]pyrimidin-2-yloxy)-phenyl]-methyl-amino}-benzonitrile], the half-inhibitory concentration (IC50) (as a rule, the midpoint of a concentration-inhibition curve) against JMJD2C was 100 to 1000 nM; in test [1] it was greater than 10000 nM.

In the case of `CCc1ccc(N(C)c2ccc(Oc3nc(O)c4ccncc4n3)cc2)cc1` [Example 84, 2-[4-(4-ethyl-N-methylanilino)phenoxy]pyrido[3,4-d]pyrimidin-4-ol], the IC50 was 100 to 1000 nM at JMJD2C and no more than 100 nM in test [1].

In the case of `CN(c1ccc(Oc2nc(O)c3ccncc3n2)cc1)c1cccc(C(F)(F)F)c1` [Example 86, 2-[4-[N-methyl-3-(trifluoromethyl)anilino]phenoxy]pyrido[3,4-d]pyrimidin-4-ol], the IC50 lay within 1000 to 10000 nM at JMJD2C and 100 to 1000 nM in test [1].

Turning to `Cc1ccc(N(C)c2ccc(Oc3nc(O)c4ccncc4n3)cc2)nc1` [Example 43, 2-[4-[methyl-(5-methylpyridin-2-yl)amino]phenoxy]pyrido[3,4-d]pyrimidin-4-ol], the 50% inhibitory concentration (IC50) (against JMJD2C; in test [1]) was 100 to 1000 nM each time.

As to `Cc1ccc(N(C)c2ccc(Oc3nc(O)c4ccncc4n3)cc2)cc1N1CCN(C)CC1` [Example 105, 2-[4-[N,4-dimethyl-3-(4-methylpiperazin-1-yl)anilino]phenoxy]pyrido[3,4-d]pyrimidin-4-ol], the IC50 on JMJD2C was no more than 100 nM; in test [1] it was 1000 to 10000 nM.

With `CN(c1ccc(Oc2nc(O)c3ccncc3n2)cc1)c1ccc(S(C)(=O)=O)cc1` [Example 57, 2-[4-(N-methyl-4-methylsulfonylanilino)phenoxy]pyrido[3,4-d]pyrimidin-4-ol], the IC50 on JMJD2C is 100 to 1000 nM; in test [1], greater than 10000 nM.

For `CN1CCN(c2cccc(N(C)c3ccc(Oc4nc(O)c5ccncc5n4)cc3)c2)CC1=O` [Example 45, 4-[3-[4-(4-hydroxypyrido[3,4-d]pyrimidin-2-yl)oxy-N-methylanilino]phenyl]-1-methylpiperazin-2-one], the concentration for half-maximal inhibition (IC50) is 100 to 1000 nM against JMJD2C and greater than 10000 nM in test [1].

As for `CN(c1ccc(CC(F)(F)F)cc1)c1ccc(Oc2nc(O)c3ccncc3n2)cc1` [Example 106, 2-[4-[N-methyl-4-(2,2,2-trifluoroethyl)anilino]phenoxy]pyrido[3,4-d]pyrimidin-4-ol], the IC50 against JMJD2C is 1000 to 10000 nM; in test [1], no more than 100 nM.

With `CN(c1ccc(Oc2nc(O)c3ccncc3n2)cc1)c1cccc(N2CCCC2)c1` [Example 48, 2-[4-(N-methyl-3-pyrrolidin-1-ylanilino)phenoxy]pyrido[3,4-d]pyrimidin-4-ol], the values for the IC50 (on JMJD2C; in test [1]) were 100 to 1000 nM and greater than 10000 nM, respectively.

For the molecule `COC(C)c1ccc(N(C)c2ccc(Oc3nc(O)c4ccncc4n3)cc2)cc1` (centres unmarked) [Example 36, 2-(4-{[4-(1-methoxy-ethyl)-phenyl]-methyl-amino}-phenoxy)-pyrido[3,4-d]pyrimidin-4-ol], the IC50 (on JMJD2C; in test [1]) was 100 to 1000 nM in each case.

Consider `CCCc1ccc(N(C)c2ccc(Oc3nc(O)c4ccncc4n3)cc2)cc1` [Example 69, 2-[4-(N-methyl-4-propylanilino)phenoxy]pyrido[3,4-d]pyrimidin-4-ol], for which the IC50 against JMJD2C was 1000 to 10000 nM; in test [1], no more than 100 nM.

Turning to `CC(CCN)c1ccc(N(C)c2ccc(Oc3nc(O)c4ccncc4n3)cc2)cc1` (centres unmarked) [Example 71, 2-[4-[4-(4-aminobutan-2-yl)-N-methylanilino]phenoxy]pyrido[3,4-d]pyrimidin-4-ol], the results for the IC50 (against JMJD2C; in test [1]) were no more than 100 nM and 1000 to 10000 nM, respectively.

Turning to `COCC(C)c1ccc(N(C)c2ccc(Oc3nc(O)c4ccncc4n3)cc2)cc1` (centres unmarked) [Example 29, 2-(4-{[4-(2-methoxy-1-methyl-ethyl)-phenyl]-methyl-amino}-phenoxy)-pyrido[3,4-d]pyrimidin-4-ol], the IC50 (against JMJD2C; in test [1]) was 100 to 1000 nM throughout.

Turning to `CN(c1ccc(Oc2nc(O)c3ccncc3n2)cc1)c1ccc(OC(F)(F)F)cc1` [Example 110, 2-[4-[N-methyl-4-(trifluoromethoxy)anilino]phenoxy]pyrido[3,4-d]pyrimidin-4-ol], the IC50 on JMJD2C fell in the range of 1000 to 10000 nM; in test [1], 100 to 1000 nM.

As for `Oc1nc(Oc2ccc3c(ccn3C3CCOCC3)c2)nc2cnccc12` [Example 91, 2-[1-(oxan-4-yl)indol-5-yl]oxypyrido[3,4-d]pyrimidin-4-ol], the IC50 against JMJD2C was 100 to 1000 nM; in test [1] it was greater than 10000 nM.

As to `COCCNCC(C)c1ccc(N(C)c2ccc(Oc3nc(O)c4ccncc4n3)cc2)cc1` (centres unmarked) [Example 100, 2-[4-[4-[1-(2-methoxyethylamino)propan-2-yl]-N-methylanilino]phenoxy]pyrido[3,4-d]pyrimidin-4-ol], the IC50 at JMJD2C is no more than 100 nM; in test [1] it was greater than 10000 nM.

For `CN(c1ccc(CC2CC2)cc1)c1ccc(Oc2nc(O)c3ccncc3n2)cc1` [Example 76, 2-[4-[4-(cyclopropylmethyl)-N-methylanilino]phenoxy]pyrido[3,4-d]pyrimidin-4-ol], the IC50 at JMJD2C is 1000 to 10000 nM; in test [1], no more than 100 nM.

For the molecule `CN(c1ccc(Oc2nc(O)c3ccncc3n2)cc1)c1ccc(C2CC2)cc1` [Example 42, 2-{4-[(4-cyclopropyl-phenyl)-methyl-amino]-phenoxy}-pyrido[3,4-d]pyrimidin-4-ol], the IC50 (at JMJD2C; in test [1]) was 100 to 1000 nM in each case.

`CN1CCCN(c2cccc(N(C)c3ccc(Oc4nc(O)c5ccncc5n4)cc3)c2)CC1` [Example 88, 2-[4-[N-methyl-3-(4-methyl-1,4-diazepan-1-yl)anilino]phenoxy]pyrido[3,4-d]pyrimidin-4-ol]: the figures for the IC50 (at JMJD2C; in test [1]) were no more than 100 nM and greater than 10000 nM, respectively.
